Consider 5 compounds from patent US9079854B2 (priority 2007, dated 2015).

The target in experiment [1] is T1, human CB1 (hCB1) receptor (Homo sapiens, UniProt P21554).
T1 construct: expressed in transfected cells; host or cells: CHO (Chinese hamster ovary) cells, membranes
Kind of experiment: CB1 binding assay, competitive binding of [3H]CP 55940. Particulars: at 1 μM; specific binding of [3H]-CP55940; CHO membranes. A digest of the protocol: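 CHO cell membranes expressing human CB1 (25 μg protein) incubated 120 min at 37 °C with 0.5 nM [3H]CP 55940 in Tris-HCl pH 7.4 buffer with MgCl2, EDTA, 0.3% BSA. Filtration and scintillation counting; compound tested at 1 μM, given as percent inhibition of control specific binding.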

Experiment [2] addresses T2, human CB2 (hCB2) receptor (Homo sapiens, UniProt P34972).
T2 construct: expressed in transfected cells; host or cells: CHO (Chinese hamster ovary) cells, membranes
Description: CB2 binding assay, competitive binding of [3H]WIN 55212-2. The following applies: read-out: % inhibition hCB2 receptor, at 1 μM; specific binding of [3H]-WIN55212-2; CHO membranes. A digest of the protocol:
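CHO cell membranes expressing hCB2 (15 μg protein) incubated 120 min at 37° C with 0.8 nM [3H]WIN 55212-2 in 50 mM HEPES/Tris pH 7.4, 5 mM MgCl2, 2.5 mM EGTA, 0.1% BSA; nonspecific binding with 10 μM WIN 55212-2. Filtration and scintillation counting; compounds at 1 μM, reported as % inhibition of control specific binding.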

The target in experiment [3] is T3, CB1 (Homo sapiens, UniProt P21554). Kind of experiment: CB1 antagonist functional assay. Format: biochemical. The following applies: data not shown.
T3 sequence (P21554 whole entry): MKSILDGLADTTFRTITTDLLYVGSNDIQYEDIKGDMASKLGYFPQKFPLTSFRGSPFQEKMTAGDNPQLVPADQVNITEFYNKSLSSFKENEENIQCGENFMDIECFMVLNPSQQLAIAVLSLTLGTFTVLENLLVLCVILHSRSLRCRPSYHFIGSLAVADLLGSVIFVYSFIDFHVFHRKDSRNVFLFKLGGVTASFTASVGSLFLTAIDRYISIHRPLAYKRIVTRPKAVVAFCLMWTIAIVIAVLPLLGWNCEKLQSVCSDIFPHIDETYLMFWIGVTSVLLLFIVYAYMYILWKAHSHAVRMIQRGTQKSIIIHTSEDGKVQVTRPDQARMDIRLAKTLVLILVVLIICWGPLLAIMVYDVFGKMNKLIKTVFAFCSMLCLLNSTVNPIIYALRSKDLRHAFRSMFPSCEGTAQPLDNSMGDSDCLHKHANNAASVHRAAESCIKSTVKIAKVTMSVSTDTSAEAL
Experiment [4] concerns the target T4, hCB2 receptor (Homo sapiens, UniProt P34972).
T4 construct: purchased ES-111-MG; host or cells: CHO membrane extracts
Description: CB2 functional assay, [35S]GTP-γ-S binding. Format: biochemical. The following applies: for EC50 / Emax: Table 9; for EC50: mean of two determinations, read-out: [35S]GTP-γ-S hCB2 EC50 (nM ± SEM); for Emax: relative to the efficacy of CP 55,940. On the procedure:
(§1) A dose response curve was generated at eight concentrations in duplicate on CB1 and CB2 in light of reference agonists.
(§2) Membranes (CB1, ES-110-MG or CB2, ES-111-MG) are mixed with GDP (volume:volume) and incubated for at least […] on ice. In parallel, […] are mixed with the beads (volume:volume) just before starting the reaction. The following reagents are successively added in the wells of an Optiplate: 50 μl of ligand, 20 μl of the membranes:GDP mix, 10 μl of assay buffer for agonist testing and 20 μl of the […]: beads mix. The plates are covered with a topseal, shaken on an orbital shaker for 2 min, and then incubated between 30 to 60 min at room temperature. Then the plates are centrifuged for 10 min at 2000 rpm, incubated at room temperature between 1 to 4 hours and counted for 1 min with a PerkinElmer TopCount reader.
(§3) Functional activity for acyl hydrazone was evaluated using [^35S]GTP-γ-S assay in CHO membrane extracts expressing recombinant hCB1 receptor or hCB2 receptor. The assay relies on the binding of [^35S]GTP-γ-S, a radiolabeled nonhydrolyzable GTP analogue, to the G protein upon binding of an agonist of the G-protein-coupled receptor. In this system, agonists stimulate [^35S]GTP-γ-S binding whereas neutral antagonist have no effect and inverse agonists decrease [^35S]GTP-γ-S basal binding.
(§4) CB1 and CB2 assay data are presented as the mean of two determinations. […] For replicate determinations, the maximum variability tolerated in the test was of ±20% around the average of the replicates.
On the technique in general: Binding of GTPγS marks nucleotide exchange on a G protein.

For experiment [5], the target named is T3, CB1. Kind of experiment: CB1 functional assay, [35S]GTP-γ-S binding. Also noted: purchased ES-110-MG; host or cells: CHO membrane extracts. Format: biochemical. Particulars: for Emax at 3 µM: read-out: [35S]GTP-γ-S hCB1 Emax (%), Table 9 footnote a: Efficacy determined at 3 μM, relative to CP 55,940. On the procedure: as §1, §2, §3, §4
Experiment [6] concerns tactile allodynia in a spinal nerve ligation neuropathic pain model. Description: Lumbar 5/6 spinal nerve ligation neuropathic pain model, mechanical paw withdrawal threshold (von Frey). Format: in vivo, rat. The following applies: pretreatment with 5 mg/kg i.p.; rats. An excerpt: Neuropathic pain was induced following the methods of Kim and Chung. Kim S H, Chung J M. An experimental model for peripheral neuropathy produced by segmental spinal nerve ligation in the rat. Pain 1992; 50:355-63. Rats were anesthetized and placed prone under a microsurgical apparatus. A midline incision was made on the back, and the right paraspinal muscles were separated from the spinous processes at the L4-S2 levels. The L6 transverse process was carefully removed, and the L4/5 spinal nerves were identified. The L5 nerve was tightly ligated with a 6-0 silk suture. The right L6 spinal nerve was then located just caudal and medial to the sacroiliac junction and tightly ligated with a silk suture.
Two weeks later after spinal nerve ligation, Intrathecal catheters (PE-10 tubing) was inserted into the rats while they were anesthetized with isoflurane, as described by Yaksh and Rudy. Yaksh T L, Rudy T A. Chronic catheterization of the spinal subarachnoid space. Physiology & Behavior 1976; 17:1031-6. A midline incision was made on the back of the neck. The muscle was freed at the attachment to the skull exposing the cisternal membrane. The membrane was opened with a stab blade and an 8.5 cm polyethylene (PE-10) catheter was then inserted through the cisternal opening, and passed carefully and caudally into the intrathecal space at the L1-L3 spinal segments. The end of the catheter was tunneled through the subcutaneous space over the frontal bones, flushed with 10 μl saline, and then plugged with a short length of wire Animal testing was performed 5-7 days after intrathecal catheter placement.
To assess mechanical allodynia, the mechanical paw withdrawal threshold was measured with a series of von Frey hairs (range 0.4-15 g). Rats were placed in elevated Perspex enclosures (28 cm×15 cm×18 cm) with wire mesh bases and given 15-20 min to acclimatize to the testing environment. Rats will be allowed to acclimatize for 30 min in a clear plastic cage with a wire mesh bottom. The calibrated von Frey filament fibers were applied to the hindpaw briefly for 6 seconds to determine the paw withdrawal threshold before and after drug injection (intraperitoneally or intrathecally). A series of von Frey filaments with exponentially incremental stiffness (0.4, 0.7, 1.2, 2.0, 3.6, 5.5, 8.5 and 15 g) were used to measure the 50% threshold for hindpaw withdrawal in awake, unrestrained rats. Chaplan S R, Bach F W, Pogrel J W, Chung J M, Yaksh T L. Quantitative assessment of tactile allodynia in the rat paw. Journal of Neuroscience Methods 1994; 53:55-63. Brisk paw withdrawal from the pressure of a filament gently bent against the plantar paw was defined as a positive response, and absence of withdrawal within 6 s as a negative response. Filaments were touched to the hindpaw in sequential ascending or descending order until the threshold of response is crossed (allowing about 10 s between each increment of the von Frey filaments). Each time the threshold is crossed, the direction of stimulus presentation was reversed and the procedure will be resumed. Four responses were collected after the first threshold detection, and the 50% withdrawal thresholds were interpolated. In cases where response thresholds fell outside the range of detection, 15.00 and 0.25 g were, respectively, assigned for continuous negative or positive responses to the limit of stimuli.
All surgical procedures were performed under deep isoflurane anesthesia in 100% O2. The spinal nerve ligation (SNL) was performed as described previously. Kim, S. H., et al., An Experimental Model for Peripheral Neuropathy Produced by Segmental Spinal Nerve Ligation in the Rat, Pain, 1992, 50:355-63. Briefly, a midline incision above the lumbar spine exposed the left L6 transverse process. The process was then removed, the left L5 and L6 spinal nerves were isolated, and both nerves were tightly ligated with 6-0 silk. […]

Molecules are shown by their SMILES.

T1 sequence (P21554 whole entry): as above
T2 sequence (P34972 whole entry): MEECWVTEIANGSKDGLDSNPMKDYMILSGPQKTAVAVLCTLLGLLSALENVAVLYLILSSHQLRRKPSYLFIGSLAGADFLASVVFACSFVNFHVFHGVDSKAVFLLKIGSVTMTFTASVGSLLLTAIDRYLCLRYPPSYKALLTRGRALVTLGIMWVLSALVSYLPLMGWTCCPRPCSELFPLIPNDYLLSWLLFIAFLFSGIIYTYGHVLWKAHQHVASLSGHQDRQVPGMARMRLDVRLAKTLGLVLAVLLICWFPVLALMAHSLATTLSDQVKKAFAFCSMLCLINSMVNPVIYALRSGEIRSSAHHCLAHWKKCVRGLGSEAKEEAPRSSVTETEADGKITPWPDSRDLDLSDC
T4 sequence (P34972 whole entry): as above

Broadly, the inhibition is the share of the control response that was lost under treatment. In general, Emax refers to the size of the effect at its maximum, as opposed to the concentration needed. Consider `CCCCCCN1C(=O)/C(=N\NC(=O)C23CC4CC(CC(C4)C2)C3)c2ccccc21` [Example 20, N′-[(3Z)-1-hexyl-2-oxo-1,2-dihydro-3H-indol-3-ylidene]adamantane-1-carbohydrazide], for which the inhibition at 1 µM in experiment [1] and in experiment [2] was over 85% throughout. Also, in experiment [3], the “antagonist activity in a CB1 antagonist functional assay” value is on record as “failed to be antagonist”. Also, the Emax at 3 µM in experiment [4] (read-out: [35S]GTP-γ-S hCB2 Emax (%), Table 9 footnote a: Efficacy determined at 3 μM, relative to CP 55,940) is 32.1%; in experiment [5] it was 34.6%.
As to `COc1ccc(C(=O)c2c(C)n(CCN3CCOCC3)c3cc(I)ccc23)cc1` [AM630, reference compound], the “effect of pretreatment on the anti-allodynic effect of Example 6” value in experiment [6] was “antagonized the effects of compound of Example 6”.
As usually defined, the EC50 is the concentration needed to bring the measured effect to its halfway point. The compound `CCCCCCN1C(=O)/C(=N\NC(=O)c2cccc3ccccc23)c2ccccc21` [Example 19, N′-[(3Z)-1-hexyl-2-oxo-1,2-dihydro-3H-indol-3-ylidene]-1-naphthohydrazide] came in with an inhibition at 1 µM in experiment [1] of over 80%. For the same compound, the inhibition at 1 µM in experiment [2] came to 69.8 ± 4%. Further, the “antagonist activity in a CB1 antagonist functional assay” value in experiment [3] is given as “failed to be antagonist”. In experiment [4], the EC50 is 202.2 ± 2 nM and the maximum response (Emax) was determined as 30.5%. In addition, the Emax at 3 µM in experiment [5] was 12.9%.
Take `O=C(N/N=C1\C(=O)N(CC2CCCCC2)c2ccccc21)c1ccccc1` [Example 25, N′-[(3Z)-1-(cyclohexylmethyl)-2-oxo-1,2-dihydro-3H-indol-3-ylidene]benzohydrazide]: the inhibition at 1 µM worked out at 99 ± 1.1% in experiment [1] and 100 ± 0.4% in experiment [2]. The EC50 was 9.8 ± 1.1 nM in experiment [4] and 62.3 ± 1.3 nM in experiment [5] (Table 9, mean of two determinations, read-out: [35S]GTP-γ-S hCB1 EC50 (nM ± SEM)). The Emax in experiment [4] is 65.7%; in experiment [5] (Table 9, relative to the efficacy of CP 55,940), 99%.
Turning to `CCCCN1C(=O)/C(=N\NC(=O)c2ccccc2)c2ccccc21` [Example 22, N′-[(3Z)-1-(1-butyl)-2-oxo-1,2-dihydro-3H-indol-3-ylidene]benzohydrazide], the inhibition at 1 µM in experiment [1] came out at 86 ± 2.4%; in experiment [2] it was 70 ± 2.4%. Moreover, in experiment [4], the EC50 was 40.1 ± 1.5 nM. For the same compound, the Emax in experiment [4] was 98.9%. Also, in experiment [5], the Emax at 3 µM is 69%.
